Data as given in patent publication US8729087B2, “Compositions and methods for inhibition of the JAK pathway” (Rigel Pharmaceuticals, Inc., priority 2006, dated 2014).
pIC50: −log10 of the molar value. Where two headings read alike, the source gives them in different places.

How the values were obtained:
[1] = system: A549 lung epithelial cells; experiment: A549 Epithelial Line Stimulated with IFNγ (ICAM-1 surface expression, FACS); format: cell-based, human; conditions: IFNγ 75 ng/mL, 24 hours, ICAM-1 (CD54) surface expression by flow cytometry; read-out: Example 4 (IC50, A549 epithelial line stimulated with IFNγ)
Text: (§1) The activity of the compounds of the invention may additionally be characterized by assaying the effect of the 2,4-pyrimidinediamine compounds described herein on A549 lung epithelial cells and U937 cells. A549 lung epithelial cells and U937 cells up-regulate ICAM-1 (CD54) surface expression in response to a variety of different stimuli. Therefore, using ICAM-1 expression as readout, test compound effects on different signaling pathways can be assessed in the same cell type. Stimulation with IL-1β through the IL-1β receptor activates the TRAF6/NFκB pathway resulting in up-regulation of ICAM-1. IFNγ induces ICAM-1 up-regulation through activation of the JAK1/JAK2 pathway. The up-regulation of ICAM-1 can be quantified by flow cytometry across a compound dose curve and EC50 values are calculated. An exemplary assays of this type are described in greater detail in Examples 4 and 5.
(§2) A549 lung epithelial cells up-regulate ICAM-1 (CD54) surface expression in response to a variety of different stimuli. Therefore, using ICAM-1 expression as readout, compound effects on different signaling pathways can be assessed in the same cell type. IFNγ up-regulates ICAM-1 through activation of the JAK/Stat pathway. In this example, the up-regulation of ICAM-1 by IFNγ was assessed.
The A549 lung epithelial carcinoma cell line originated from the American Type Culture Collection. Routine culturing was with F12K media (Mediatech Inc., Lenexa, Kans., Cat. No. 10-025-CV) with 10% fetal bovine serum, 100 I.U. penicillin and […] streptomycin (complete F12k media). Cells were incubated in a humidified atmosphere of 5% CO2 at 37° C. Prior to use in the assay, A549 cells were washed with PBS and trypsinized (Mediatech Inc., Cat. No. 25-052-CI) to lift the cells. The trypsin cell suspension was neutralized with complete F12K media and centrifuged to pellet the cells. The cell pellet was resuspended in complete F12K media at a concentration of 2.0×10^5/mL. Cells were seeded at 20,000 per well, 100 μL total volume, in a flat bottom tissue culture plate and allowed to adhere overnight.
On day two, A549 cells were pre-incubated with a 2,4-pyrimidinediamine test compound or DMSO (control) (Sigma-Aldrich, St. Louis, Mo., Catalog No. D2650) for 1 hour. The cells were then stimulated with IFNγ (75 ng/mL) (Peprotech Inc., Rocky Hill, N.J., Cat. No. 300-02) and allowed to incubate for 24 hours. The final test compound dose range was 30 μM to 14 nM in 200 μL F12K media containing 5% FBS, 0.3% DMSO.
On day three, the cell media was removed and the cells were washed with 200 μL PBS (phosphate buffered saline). Each well was trypsinized to dissociate the cells, then neutralized by addition of 200 μL complete F12K media. Cells were pelleted and stained with an APC conjugated mouse anti-human ICAM-1 (CD54) (BD Pharmingen, San Diego, Calif., Catalog #559771) antibody for 20 minutes at 4° C. Cells were washed with ice cold FACS buffer (PBS+2% FBS) and surface ICAM-1 expression was analyzed by flow cytometry. Detection was performed using a BD LSR I System Flow Cytometer, purchased from BD Biosciences of San Jose, Calif. Events were gated for live scatter and the geometric mean was calculated (Becton-Dickinson CellQuest software version 3.3, Franklin Lakes, N.J.). Geometric means were plotted against the compound concentration to generate a dose response curve.

[2] = system: Human U937 monocytic cells; experiment: U937 IFNγ ICAM1 FACS Assay; format: cell-based
Text: as §1
as §2, with “Human U937 monocytic” for “A549 lung epithelial”
The U937 human monocytic cell line was obtained from ATCC of Rockville Md., catalog number CRL-1593.2, and cultured in RPM1-1640 medium containing 10% (v/v) FCS. U937 cells were grown in 10% RPMI. The cells were then plated at a concentration of 100,000 cells per 160 μL in 96 well flat bottom plates. The test compounds were then diluted as follows: 10 mM test compound was diluted 1:5 in DMSO (3 μL 10 mM test compound in 12 μL DMSO), followed by a 1:3 serial dilution of test compound in DMSO (6 μL test compound serially diluted into 12 μL DMSO to give 3-fold dilutions). Then 4 μL of test compound was transferred to 76 μL of 10% RPMI resulting in a 10× solution (100 μM test compound, 5% DMSO). For control wells, 4 μL of DMSO was diluted into 76 μL 10% RPMI.
The assay was performed in duplicate with 8 points (8 3-fold dilution concentrations from […]) and with 4 wells of DMSO only (control wells) under stimulated conditions and 4 wells of DMSO only under unstimulated conditions.
The diluted compound plate was mixed 2× using a multimek (Beckman Coulter of Brea, Calif.) and then 20 μL of the diluted compounds was transferred to the 96 well plate containing 160 μL of cells, which were then mixed again twice at low speeds. The cells and compounds were then pre-incubated for 30 minutes at 37° C. with 5% CO2.
The 10× stimulation mix was made by preparing a 100 ng/mL solution of human IFNγ in 10% RPMI. The cells and compound were then stimulated with 20 μL of IFNγ stimulation mix to give a final concentration of 10 ng/mL IFNγ, 10 μM test compound, and 0.5% DMSO. The cells were kept under conditions for stimulation for 18-24 hours at 37° C. with 5% CO2.
The cells were transferred to a 96 well round bottom plate for staining and then kept on ice for the duration of the staining procedure. Cells were spun down at 1000 rpm for 5 minutes at 4° C., following which the supernatant was removed. Following removal of the supernatant, 1 μL APC conjugated mouse anti-human ICAM-1 antibody was added per 100 μL FACS buffer. The cells were then incubated on ice in the dark for 30 minutes. Following incubation, 150 μL of FACS buffer was added and the cells were centrifuged at 1000 rpm for 5 minutes at 4° C., following which the supernatant was removed. After removal of the supernatant, 200 μL of FACS buffer was added and the cells were resuspended. After suspension, the cells were centrifuged at 1000 rpm for 5 min at 4° C. Supernatant was then removed prior to resuspension of the cells in 150 μL FACS buffer.
Detection was performed using a BD LSR I System Flow Cytometer, purchased from BD Biosciences of San Jose, Calif. […]

[3] = IFNγ 10 ng/mL, 18-24 hours, ICAM-1 expression by flow cytometry, read-out: Example 5 (IC50, U937 IFNγ ICAM1 FACS assay)
[4] = Homo sapiens, U-937, IFNγ 10 ng/mL, 18-24 hours, ICAM-1 expression by flow cytometry, read-out: Example 5 (IC50, U937 IFNγ ICAM1 FACS assay)

CCS(=O)(=O)NCc1ccc(Nc2nc(Nc3ccc(CS(=O)(=O)NC)cc3)ncc2C)cc1 [Compound I-2, N4-(4-ethylsulfonylaminomethyl)phenyl-5-methyl-N2-(4-methylaminosulfonylmethyl)phenyl-2,4-pyrimidinediamine]
pIC50 [1]: 5.76
pIC50 [2, 3]: 6.87

CN1C(=O)C(C)(C)Oc2cc(Nc3nc(Nc4cccc(CS(N)(=O)=O)c4)ncc3F)cnc21 [IV-2, N2-[3-(Aminosulfonylmethylene)phenyl]-N4-[2,2-dimethyl-3-oxo-4-methyl-pyrid[1,4]oxazin-7-yl]-5-fluoro-2,4-pyrimidinediamine]
pIC50 [1]: 5.46

CC1(C)Oc2cc(Nc3nc(Nc4cccc(CS(N)(=O)=O)c4)ncc3F)cnc2NC1=O [IV-1, N2-[3-(Aminosulfonylmethylene)phenyl]-N4-[2,2-dimethyl-3-oxo-4H-pyrid[1,4]oxazin-7-yl]-5-fluoro-2,4-pyrimidinediamine]
pIC50 [2, 3]: 4.73

Cc1cnc(Nc2ccc(S(N)(=O)=O)cc2)nc1Nc1ccc2c(c1)C(NS(C)(=O)=O)CC2 (racemic) [VI-2, (+/−)-N2-(4-Aminosulfonylphenyl)-5-methyl-N4-[1-(methylsulfonyl)aminoindan-6-yl]-2,4-pyrimidinediamine]
pIC50 [2, 4]: 5.59

N#CCOc1ccc(Nc2nc(Nc3cccc(CS(N)(=O)=O)c3)ncc2F)cc1 [Compound I-1, N2-[3-(Aminosulfonylmethylene)phenyl]-5-fluoro-N4-(4-cyanomethyleneoxyphenyl)-2,4-pyrimidinediamine]
pIC50 [1]: 5.51
pIC50 [2, 3]: 6.26

CNS(=O)(=O)Cc1ccc(Nc2ncc(F)c(Nc3ccc(CNS(=O)(=O)C4CC4)cc3)n2)cc1 [Compound I-8, N4-(4-cyclopropylsulfonylaminomethyl)phenyl-5-fluoro-N2-(4-methylaminosulfonylmethyl)phenyl-2,4-pyrimidinediamine]
pIC50 [1]: 5.41
pIC50 [2, 3]: 6.46

NS(=O)(=O)N1CCc2ccc(Nc3ncc(F)c(Nc4ccc(CNS(=O)(=O)C5CC5)cc4)n3)cc2C1 [III-2, N2-(2-Aminosulfonyl-1,2,3,4-tetrahydroisoquinolin-7-yl)-N4-[4-(cyclopropylsulfonylaminomethyl)phenyl]-5-fluoro-2,4-pyrimidinediamine]
pIC50 [2, 4]: 6.79

Cc1cnc(Nc2ccc(CCNS(=O)(=O)C3CC3)cc2)nc1Nc1ccc(CCNS(=O)(=O)C2CC2)cc1 [II-2, N2,N4-bis[4-(2-cyclopropylsulfonylamino)ethyl]phenyl-5-methyl-2,4-pyrimidine diamine]
pIC50 [2, 3]: 6.00

CCS(=O)(=O)NCc1ccc(Nc2nc(Nc3ccc(CS(=O)(=O)NC)cc3)ncc2F)cc1 [Compound I-10, N4-(4-ethylsulfonylaminomethyl)phenyl-5-fluoro-N2-(4-methylaminosulfonylmethyl)phenyl-2,4-pyrimidinediamine]
pIC50 [2, 3]: 6.33

C#CCOc1ccc(Nc2nc(Nc3ccc4c(c3)CN(S(N)(=O)=O)CC4)ncc2F)cc1 [III-4, N2-(2-Aminosulfonyl-1,2,3,4-tetrahydroisoquinolin-7-yl)-N4-(4-(prop-2-ynyloxy)phenyl)-5-fluoro-2,4-pyrimidinediamine]
pIC50 ([2]; Homo sapiens, U-937, read-out: Example 5 (IC50, U937 IFNγ ICAM1 FACS assay)): 6.34

Cc1cnc(Nc2ccc(CNS(=O)(=O)C3CC3)cc2)nc1Nc1ccc(CNS(=O)(=O)C2CC2)cc1 [II-1, N2,N4-bis(4-cyclopropylsulfonylaminomethyl)phenyl-5-methyl-2,4-pyrimidinediamine]
pIC50 [1]: 5.21
pIC50 [2, 3]: 7.15

COc1cc(Nc2nc(Nc3ccc4c(c3)CN(S(N)(=O)=O)CC4)ncc2F)ccc1Cl [III-1, N2-(2-Aminosulfonyl-1,2,3,4-tetrahydroisoquinolin-7-yl)-N4-(4-chloro-3-methoxyphenyl)-5-fluoro-2,4-pyrimidinediamine]
pIC50 [2, 4]: 5.97
